Test results: patent US20250353873A1, “COMPOUNDS AND METHODS FOR MODULATING APOE EXPRESSION” (Ionis Pharmaceuticals, Inc., priority 2024, published 2025)
Strand notation (5' to 3'): a small letter for the sugar, then the base; units joined by * are phosphorothioate-linked, units joined directly phosphodiester-linked; [ ] holds rarer units or linkages, { } end groups; capitals alone tell only the bases. [ms] = mesyl phosphoramidate linkage; k = constrained ethyl (cEt); [5mC] = 5-methylcytosine; d = 2'-deoxy (DNA)

Tests used:
[1] = tested on: human APOE RNA; assay: Dose-dependent inhibition of human APOE RNA in HepG2 cells, electroporation, 50,000 cells per well, RT-PCR normalized to GAPDH (Example 4, Tables 8-10); format: cell-based; conditions: HepG2, electroporation, 24-hour treatment
Method: Modified oligonucleotides selected from the examples above were tested at various doses in HepG2 cells. The modified oligonucleotides were tested in a series of experiments that had the same culture conditions. Each experiment is identified in separate tables below.
HepG2 cells plated at a density of 50,000 cells per well were treated by electroporation with various concentrations of modified oligonucleotide as specified in the tables below. […] APOE RNA levels were measured using the human primer probe set RTS3073 (forward sequence […], designated herein as SEQ ID NO: 7; reverse sequence CCATCAGCGCCCTCAGTT, designated herein as SEQ ID NO: 8; probe sequence […], designated herein as SEQ ID NO:9). APOE RNA levels were normalized to human GAPDH. […] Results are presented as percent APOE RNA, relative to the amount of APOE RNA in untreated control cells (UTC).

[2] = tested on: human APOE RNA; assay: Activity in APOE C57BL/6NTac-Apoeem7250 knock-in mice, single ICV bolus, 4 weeks (Example 10); format: in vivo; conditions: single ICV bolus 300 μg, 4 weeks post treatment, normalized to mouse Ppia
Method: Modified oligonucleotides described above were tested in the APOE C57BL/6NTac-Apoeem7250 knock-in mouse model described above.
APOE C57BL/6NTac-Apoeem7250 knock-in mice were divided into groups of 2-4 mice each. Each mouse received a single ICV bolus of 300 μg of modified oligonucleotide. A group of 3-4 mice received a single ICV bolus with PBS as a negative control.
Four weeks post treatment, mice were sacrificed and RNA was extracted from cortical brain tissue and spinal cord for quantitative real-time RT-PCR analysis of RNA expression of APOE using human primer probe set RTS3073 (described herein above). APOE RNA levels were normalized to mouse Ppia. Mouse Ppia was amplified using primer probe set m_cyclo24 (described herein above). Results are presented as percent human APOE RNA relative to the amount of human APOE RNA in PBS treated animals, (% control). Each experiment is identified in separate tables below.

Substance	APOE RNA (% UTC) ([1]; 5 nM)	APOE RNA (% UTC) ([1]; 13 nM)	APOE RNA (% UTC) ([1]; 33 nM)	APOE RNA (% UTC) ([1]; 82 nM)	APOE RNA (% UTC) ([1]; 205 nM)	APOE RNA (% UTC) ([1]; 512 nM)	APOE RNA (% UTC) ([1]; 1,280 nM)	APOE RNA (% UTC) ([1]; 3,200 nM)	APOE RNA (% UTC) ([1]; 8,000 nM)	APOE RNA (% UTC) ([1]; 20,000 nM)	IC50 [1]	APOE RNA (% control) Cortex [2]	APOE RNA (% control) Spinal Cord [2]
1746786 (k[5mC]*kT*dT[ms]dG[ms]kG*dT[ms]dG[ms]dA[ms]dA[ms]dT*d[5mC]*dT*dT*dT*dA[ms]dT*kT*kA*dA[ms]kA; antisense) [Compound 1746786]	85 % UTC	93 % UTC	90 % UTC	75 % UTC	87 % UTC	63 % UTC	39 % UTC	34 % UTC	18 % UTC	14 % UTC	1010 nM	79 % control	52 % control
1746787 (k[5mC]*kT*dT[ms]dG[ms]dG[ms]kT*dG[ms]dA[ms]dA[ms]dT*d[5mC]*dT*dT*dT*dA[ms]dT*kT*kA*dA[ms]kA; antisense) [Compound 1746787]	148 % UTC	108 % UTC	92 % UTC	97 % UTC	87 % UTC	68 % UTC	56 % UTC	37 % UTC	11 % UTC	14 % UTC	1520 nM	76 % control	71 % control
1746792 (k[5mC]*dT[ms]dT[ms]kG*dG[ms]kT*dG[ms]dA[ms]dA[ms]dT*d[5mC]*dT*dT*dT*dA[ms]dT*kT*kA*dA[ms]kA; antisense) [Compound 1746792]	80 % UTC	102 % UTC	90 % UTC	87 % UTC	68 % UTC	44 % UTC	17 % UTC	12 % UTC	8 % UTC	6 % UTC	400 nM	71 % control	49 % control
1746793 (k[5mC]*dT[ms]dT[ms]dG[ms]kG*kT*dG[ms]dA[ms]dA[ms]dT*d[5mC]*dT*dT*dT*dA[ms]dT*kT*kA*dA[ms]kA; antisense) [Compound 1746793]	102 % UTC		96 % UTC	96 % UTC	53 % UTC	54 % UTC	34 % UTC	31 % UTC	1 % UTC	2 % UTC	560 nM	86 % control	47 % control
1746794 (k[5mC]*kT*kT*dG[ms]dG[ms]dT[ms]dG[ms]dA[ms]dA[ms]dT*d[5mC]*dT*dT*dT*dA[ms]dT*kT*dA[ms]kA*kA; antisense) [Compound 1746794]	119 % UTC	107 % UTC	94 % UTC	91 % UTC	67 % UTC	72 % UTC	37 % UTC	16 % UTC	9 % UTC	3 % UTC	800 nM	76 % control	41 % control
1746795 (k[5mC]*kT*dT[ms]kG*dG[ms]dT[ms]dG[ms]dA[ms]dA[ms]dT*d[5mC]*dT*dT*dT*dA[ms]dT*kT*dA[ms]kA*kA; antisense) [Compound 1746795]	119 % UTC	115 % UTC	110 % UTC	108 % UTC	99 % UTC	53 % UTC	57 % UTC	28 % UTC	12 % UTC	6 % UTC	1290 nM	75 % control	75 % control
